# Test results taken from PMC11562385 (RSC Chemical Biology, 2024).
# Peptide text beside a SMILES is read from it.
# Experiments:
# [1] = Variable-temperature CD melting curves (CD-melts at 228±2 nm and 202±2 nm), individual and global two-state fits; assay type: physicochemical
# Summary of the method: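 Far-UV CD melts (0 to 95 °C) at 15-120 µM peptide in 15 mM phosphate buffer, concentration set by Trp/Tyr absorbance at 280 nm; CD-exciton intensity taken as %-folding probe. Melting curves fitted individually and globally to a two-state model.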
# [2] = target: T1, cell surface PD1 on CD3+/CD8+ cells of h-PBMCs (Homo sapiens, UniProt Q15116); experiment: In cellulo PD1 blockade on h-PBMCs by flow cytometry; assay type: cell-based; conditions: h-PBMC cultures, 30 h, n = 3
# T1 construct: endogenous in cells; host or cells: healthy human PBMCs (CD45+, CD3+/CD8+ gated)
# Description: (§1) Then, an ex vivo immune cell culture system using h-PBMCs and exhausted PBMCs from a melanoma patient (e-PBMCs) was used to determine the efficacy of selected ADAPTin peptides on T-effector cells (Fig. 6).[91,92] T-cell exhaustion typically leads to a reduction in cytokine release, cytotoxic activity, as well as slower T-cell proliferation.
# h-PBMCs = experiment: Ex vivo cytokine secretion assay, healthy PBMCs; assay type: cell-based, human; conditions: h-PBMCs reactivated with anti-CD2/28, 6 h incubation, n = 3
# Procedure: as §1, with “proliferation. […] Cytokines concentrations measured at 72 h post-treatment were in most cases over the detection limit range further indicating the effectiveness of our compounds over time.” for “proliferation.”
# Non-covalent ADAPTin2c/2p were used as negative control. (A) Levels of inflammatory cytokines measured by flow-cytometry (FACS) after 6 h incubation with electrophilic ADAPTins. Error bars indicate the mean ± SD, (n = 3). (B) Rescue of exhausted PBMCs from a melanoma patient. Levels of inflammatory cytokines and granule-associated proteins released (6 h) measured by FACS (healthy and untreated exhausted PBMCs: h-/e-PBMCs used as positive and negative controls respectively). Error bars indicate the avg ± SD, (n = 2).
# Ex Vivo Cytokine Secretion Assay.
# Normal PBMCs (from healthy donor) and exhausted PBMCs isolated from the blood sample of a melanoma patient were activated for 48 h before using anti-CD2/28 monoclonal antibodies with IL-2 (2 ng/mL) as mentioned above. […] Samples were transferred to a 96-well plate to read on a flow cytometer. […]
# PD1:PDL1 interaction = conditions: read-out: apparent Ki, PD1:PDL1 interaction; cited from earlier work
# Description: While downsizing a full antibody drug into a single CDR-H3 “hot loop”, one should anticipate a significant loss in binding affinity and specificity. […] The PD1 ...
# [3] = xlsx sheet of the peptide, individual fit of CD-melt
# T1 sequence (Q15116 25-288): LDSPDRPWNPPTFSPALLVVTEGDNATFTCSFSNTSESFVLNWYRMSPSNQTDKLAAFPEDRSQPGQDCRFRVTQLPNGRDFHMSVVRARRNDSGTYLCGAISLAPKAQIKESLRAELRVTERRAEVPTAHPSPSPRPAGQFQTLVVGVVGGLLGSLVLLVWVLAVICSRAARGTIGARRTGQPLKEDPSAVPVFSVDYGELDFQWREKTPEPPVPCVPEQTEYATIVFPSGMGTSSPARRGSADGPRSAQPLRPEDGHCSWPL
smiles,measurement,setting,value
CSCC[C@H](NC(=O)[C@H](CC(=O)O)NC(=O)[C@H](Cc1ccccc1)NC(=O)[C@H](CCCNC(=N)N)NC(=O)[C@H](Cc1ccc(O)cc1)NC(=O)[C@H](CC(=O)O)NC(=O)[C@H](CCCNC(=N)N)NC(=O)[C@H](CCCNC(=N)N)NC(=O)[C@H](C)NC(=O)[C@@H](NC(=O)[C@H](Cc1c[nH]c2ccccc12)NC(=O)[C@@H](N)CCCNC(=N)N)C(C)C)C(=O)NCC(=O)N[C@@H](Cc1ccccc1)C(=O)N[C@@H](CC(=O)O)C(=O)N[C@@H](Cc1ccc(O)cc1)C(=O)N[C@@H](Cc1c[nH]c2ccccc12)C(=O)N[C@H](C(=O)N[C@@H](Cc1c[nH]c2ccccc12)C(=O)N[C@@H](CCC(=O)O)C(=O)O)C(C)C [2c] (H-RWVARRDYRFDMGFDYWVWE-OH),ΔGF0,"[1]; CD-melt at 228±2 nm, individual two-state Gibbs-Helmholtz fit (Origin 9.0), 0-95 °C, phosphate buffer 15 mM pH 6.5 ± MeOH",-1.26 ± 0.01 kcal/mol
same,Hairpin %-fold 291K,"[1]; Table S5, individual fit, 291 K",93 ± 1%
same,Hairpin %-fold 310K,"[1]; Table S5, individual fit, 310 K",77 ± 1%
same,-TΔSF0,[1]; as E16,12.4 ± 0.2 kcal/mol
same,ΔCpF0,[1]; as E16,-29 ± 7 cal.deg-1.mol-1
same,ΔHF0,[1]; as E16,-13.6 ± 0.2 kcal/mol
same,VT-CD %-fold,"[1]; folded fraction (χF) at 25 °C from CD-melts, (R) regular / (B) bulged fold, phosphate buffer 15 mM pH 6.5, up to 20% MeOH",93% (B)
same,Tm 228 nm Glob.,"[1]; global fit (shared maximum molar ellipticity), 228 nm",48.0 oC
same,Tm 202 nm Glob.,"[1]; global fit, 202 nm",67.5 oC
same,χF (291 K) 202 nm Glob.,"[1]; global fit, 202 nm, 291 K",97%
same,χF (291 K) 228 nm Glob.,"[1]; global fit, 228 nm, 291 K",63%
same,χF (291 K) 202 nm Indiv.,"[1]; individual fit, 202 nm, 291 K",73%
same,χF (291 K) 228 nm Indiv.,"[1]; individual fit, 228 nm, 291 K",56%
same,Tm 228 nm Indiv.,"[1]; individual fit, exciton band 228 nm",36.7 oC
same,Tm 202 nm Indiv.,"[1]; individual fit, β-bulge band 202 nm",62.2 oC
same,VT-CD Tm (°C),"[1]; melting temperature from CD-melts, phosphate buffer 15 mM pH 6.5, up to 20% MeOH",54 °C
same,"DHm, fitted value from OriginPro",[1]; [3],-14.4955 kcal/mol
same,"Tm, fitted value from OriginPro",[1]; [3],327.29 K
same,PD1 blockade on CD3+/CD8+ T-effector cells,[2],< 20%
same,"increase in TNF-α, IFN-γ and perforin levels",h-PBMCs,no detectable activity
same,Ki,PD1:PDL1 interaction,41 nM
